Source: patent US7994200B2, “Cycloalkane-substituted pyrazoline derivatives, their preparation and use as medicaments” (Laboratorios del Dr. Esteve, S.A., priority 2005, dated 2011)
Like-named read-outs stand apart in the source and are kept apart here.

What was measured:
[1] = target: recombinant human cannabinoid 1 receptor (CB1) (Homo sapiens, UniProt P21554); assay: [35S]GTPγS binding antagonistic assay against WIN 55,212-2, CHO cell membranes; assay type: biochemical; conditions: compound at 1 μM against WIN 55,212-2; 100% = effect of internal standard CB1-antagonist
Method: The percentage of catalepsy is determined according of the following formula: % Catalepsy=arithmetic mean/6×100 Antagonistic Assay: Materials and Methods. Membrane Preparation:
Chinese hamster ovary (CHO) cells stably expressing recombinant human cannabinoid 1 receptor (CB1) were cultured in nutrient mixture Ham's F 12 supplemented with 10% heat-inactivated fetal bovine serum, 2 mM L-glutamine, 50 U/ml penicillin, 50 U/ml streptomycin and 0.5 mg/ml geneticin. In order to obtain cells, culture flasks were washed twice with phosphate buffered saline and scraped. Then, cells were collected by centrifugation (200×g, 10 min) and stored dry at −80° C. Cells were homogenized in ice-cold 20 mM HEPES, 10 mM EDTA (pH 7.5) and centrifuged at 40,000×g for 15 min at 4° C. The pellet was resuspended in 20 mM HEPES, 0.1 mM EDTA (pH 7.5) and centrifuged for 15 min at 4° C. The final pellet was resuspended in 20 mM HEPES, 0.1 mM EDTA (pH 7.5), and divided in aliquots and stored at −80° C. until use.
[^35S]GTPγS Binding Assay:
The reaction was performed in 96-well plates. […] The incubation was terminated by rapid filtration through Millipore Multiscreen glass fiber FB, and rinsed two-times with ice-cold assay buffer. Filter plates were dried and 30 μl of scintillation liquid was added. Radioactivity was determined using Wallac Microbeta Trilux. Each experiment was performed at least in duplicate.
The average of basal [^35S]GTPγS binding was subtracted from all binding data.

CB1-Receptor = target: T1, CB1-Receptor (Homo sapiens, UniProt P21554); assay: In-vitro determination of affinity to CB1/CB2-Receptors, radioligand [3H]-CP55940; assay type: binding
T1 construct: purchased Receptor Biology, Inc
Method: Pharmacological Data: Pharmacological Methods I. In-vitro determination of affinity to CB1/CB2-Receptors
The in-vitro determination of the affinity of the inventive quaternary ammonium salts of substituted pyrazoline compounds to CB1/CB2-Receptors is carried out as described in the publication of Ruth A. Ross, Heather C. Brockie et al., “Agonist-inverse agonist characterization at CB1 and CB2 cannabinoid receptors of L-759633, L759656 and AM630”, British Journal of Pharmacology, 126, 665-672, (1999), whereby the transfected human CB1 and CB2 receptors of Receptor Biology, Inc. are used. The radioligand used for both receptors is [^3H]-CP55940. The respective parts of the description are hereby incorporated by reference and forms part of the present disclosure.
The affinity of the inventive substituted pyrazoline compounds to CB1/CB2 receptors was determined as described above.

[2] = In vivo testing for antiobesic activity, acute treatment; conditions: rats, acute oral administration
Method: III. In Vivo Testing for Antiobesic Activity a) Accute-Treatment
Normally handled rats were habituated to a reversed cycle 12/12 h, and the compound as well as saline was acutely orally administered. After administration the cumulated food intake (g) was measured at 6 h and 23 h. Following that the difference in body weight between control and compound treated animals was measured.

[3] = transfected human receptors, [3H]-CP55940, read-out: IC50

recombinant human cannabinoid 1 receptor (CB1), sequence (P21554 whole entry): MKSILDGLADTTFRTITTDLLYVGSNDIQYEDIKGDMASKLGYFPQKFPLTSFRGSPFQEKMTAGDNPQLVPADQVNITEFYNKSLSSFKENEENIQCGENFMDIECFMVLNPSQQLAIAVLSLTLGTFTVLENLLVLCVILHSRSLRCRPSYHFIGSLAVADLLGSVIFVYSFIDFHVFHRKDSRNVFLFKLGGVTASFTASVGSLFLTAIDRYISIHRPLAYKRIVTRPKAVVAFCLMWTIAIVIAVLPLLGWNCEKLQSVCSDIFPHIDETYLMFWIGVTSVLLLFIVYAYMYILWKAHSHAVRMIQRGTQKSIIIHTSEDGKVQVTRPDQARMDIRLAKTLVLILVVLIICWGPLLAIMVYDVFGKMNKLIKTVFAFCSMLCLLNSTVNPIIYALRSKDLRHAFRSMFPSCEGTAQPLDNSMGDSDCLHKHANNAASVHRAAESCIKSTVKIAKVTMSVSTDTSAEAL
T1 sequence (P21554 whole entry): as above

Row | SMILES | Antagonism (%) [1] [%] | IC50 (CB1-Receptor; [3]) [nM] | IC50 (CB1-Receptor) [nM] | activity reducing body weight [2]
1 | C[C@H]1C(C(=O)NC2CCCCCC2)=NN(c2ccc(Cl)cc2Cl)[C@H]1c1ccc(Cl)cc1 (relative stereo) [Example 1, cis-5-(4-chlorophenyl)-N-cycloheptyl-1-(2,4-dichlorophenyl)-4-methyl-4,5-dihydro-1H-pyrazole-3-carboxamide] | 79 ± 18 | 31.9 | – | –
2 | C[C@H]1C(C(=O)NC2CCCCCC2)=NN(c2ccc(Cl)cc2Cl)[C@H]1c1ccc(Br)cc1 (relative stereo) [Example 5, cis-5-(4-bromophenyl)-N-cycloheptyl-1-(2,4-dichlorophenyl)-4-methyl-4,5-dihydro-1H-pyrazole-3-carboxamide] | 58.1 | 30 | – | –
3 | C[C@H]1C(C(=O)NC2CCCCCC2)=NN(c2ccc(Cl)cc2Cl)[C@H]1c1ccc(F)cc1 (relative stereo) [Example 7, cis-N-cycloheptyl-1-(2,4-dichlorophenyl)-5-(4-fluorophenyl)-4-methyl-4,5-dihydro-1H-pyrazole-3-carboxamide] | 83 ± 0 | 112 | – | –
4 | COc1ccc([C@H]2[C@@H](C)C(C(=O)NC3CCCCCC3)=NN2c2ccc(Cl)cc2Cl)cc1 (relative stereo) [Example 11, cis-N-cycloheptyl-1-(2,4-dichlorophenyl)-5-(4-methoxyphenyl)-4-methyl-4,5-dihydro-1H-pyrazole-3-carboxamide] | 78 ± 8 | – | 66 | –
5 | C[C@H]1C(C(=O)N[C@@H]2CCCC[C@H]2O)=NN(c2ccc(Cl)cc2Cl)[C@H]1c1ccc(Cl)cc1 [Example 15, (4R,5R)-5-(4-chlorophenyl)-1-(2,4-dichlorophenyl)-N-((1R,2R)-2-hydroxycyclohexyl)-4-methyl-4,5-dihydro-1H-pyrazole-3-carboxamide] | – | – | – | good activity
6 | C[C@H]1C(C(=O)N[C@H]2CCCC[C@@H]2O)=NN(c2ccc(Cl)cc2Cl)[C@H]1c1ccc(Cl)cc1 [Example 17, (4R,5R)-5-(4-chlorophenyl)-1-(2,4-dichlorophenyl)-N-((1S,2S)-2-hydroxycyclohexyl)-4-methyl-4,5-dihydro-1H-pyrazole-3-carboxamide] | 13 | – | – | –
7 | C[C@@H]1C(C(=O)N[C@H]2CCCC[C@@H]2O)=NN(c2ccc(Cl)cc2Cl)[C@@H]1c1ccc(Cl)cc1 [Example 18, (4S,5S)-5-(4-chlorophenyl)-1-(2,4-dichlorophenyl)-N-((1S,2S)-2-hydroxycyclohexyl)-4-methyl-4,5-dihydro-1H-pyrazole-3-carboxamide] | 93 ± 8 | 69 | – | good activity
8 | COc1ccc([C@H]2[C@@H](C)C(C(=O)N[C@H]3CCCC[C@@H]3O)=NN2c2ccc(Cl)cc2Cl)cc1 [Example 29, (4R,5R)-5-(4-methoxyphenyl)-1-(2,4-dichlorophenyl)-N-((1S,2S)-2-hydroxycyclohexyl)-4-methyl-4,5-dihydro-1H-pyrazole-3-carboxamide] | 37 | – | – | –
9 | COc1ccc([C@@H]2[C@H](C)C(C(=O)N[C@H]3CCCC[C@@H]3O)=NN2c2ccc(Cl)cc2Cl)cc1 [Example 30, (4S,5S)-5-(4-methoxyphenyl)-1-(2,4-dichlorophenyl)-N-((1S,2S)-2-hydroxycyclohexyl)-4-methyl-4,5-dihydro-1H-pyrazole-3-carboxamide] | 85 | – | – | –
